Read-outs that look alike come from different tables or passages of the source. Starred links: 1 amine or outer side, 2 acyl side, 3 side chain; linkers in the order of their positions; H or OH if unused. Positions of bridges follow the written chain, without caps; N, C: chain ends. Non-standard residues stand in square brackets, D forms with d. Residues, ends and D or L forms follow the SMILES beside them. *: point of attachment. Trp(6-OH,1-(4-HO2C-Ph)) = N[C@@H](Cc1cn(-c2ccc(C(=O)O)cc2)c2cc(O)ccc12)C(=O)O; Phe(3-OCH2COOH) = N[C@@H](Cc1cccc(OCC(=O)O)c1)C(=O)O; N(CH2CH2CO)Gly = O=C(CN(CCC(=O)[*:3])[*:1])[*:2]; Phe(4-COOH) = N[C@@H](Cc1ccc(C(=O)O)cc1)C(=O)O; Piperazinyl(4-CH2COOH) = O=C(O)CN1CCN(*)CC1; Gly(N(CH2)3COOH) = O=C(O)CCCNCC(=O)O; X1 = CCCCCCC[C@H](N[*:1])C(=O)[*:2]; NMeF = CN[C@@H](Cc1ccccc1)C(=O)O; NMeDap = CN[C@@H](CN)C(=O)O; NMeA = CN[C@@H](C)C(=O)O; Bn = c1ccc(C*)cc1; Sar = CNCC(=O)O

Experimental findings from EP4786487A1, “PEPTIDE” (Peptidream Inc, priority 2023, dated 2025) are described below.

Data set [1] is described as follows: Muscle strength, body weight and serum creatine kinase in B10 mdx mice. Type of data set: in vivo, C57BL/10-mdx/Jcl mice. The following applies: 10 mg/kg subcutaneous. The method, then: (§1) In this Example, the effect of the peptide Myostatin_99_Variant_07 (SEQ ID NO: 3), synthesized according to Example 1, on improvement of muscle strength in DMD model mice was evaluated using B10 mdx model mice (NPL 17).
(§2) To five-week-old male C57BL/10-mdx/Jcl (CLEA Japan, Inc.) mice, the peptide or solvent control (Vehicle) PBS was subcutaneously administered as shown in Table 11 three times a week or every day for 5 weeks.
(§3) Using a smart-type grip strength meter for rats and mice (MK-380V; Muromachi Kikai Co., Ltd.), forelimb and hindlimb grip strength measurements and body weight measurements were performed on the day of completion of the acclimation period (grouping day), and on Days 7, 14, 21, 27, and 33. The measurements were conducted with individual identification numbers blinded so that the examiner was unaware of the test conditions of the mice. The grip strength was measured seven times consecutively, and the average of five points, excluding the two points: the highest and lowest values, was used as individual data. The body weight was weighed using an electronic balance.
(§4) Serum creatine kinase (CK) concentrations (mean ± SEM) on Day 35, when the animals were euthanized, were also examined.

Data set [2] concerns the target T1, Myostatin (Homo sapiens, UniProt O14793).
T1 construct: active myostatin (also called mature myostatin) is a homodimer consisting of two C-terminal growth factor domains; purchased R&D systems 788-G8/CF
T1 sequence (O14793 267-375): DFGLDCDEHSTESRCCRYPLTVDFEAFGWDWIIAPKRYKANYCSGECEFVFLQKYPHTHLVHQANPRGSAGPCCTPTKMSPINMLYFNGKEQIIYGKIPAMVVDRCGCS
Kind of data set: Reporter gene assay for myostatin signaling in HepG2 cell line, Evaluation Procedure (1), myostatin inhibition. Type of data set: cell-based. The essentials: (§5)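 IC50 derived from One-Glo luciferase luminescence after 20–24 h at 37 °C. Peptides titrated 4-fold at 0.006–100 nmol/L against myostatin or 0.12–2000 nmol/L against GDF-11 in HepG2 cells carrying a transfected CAGA12-luciferase reporter, kept in 0.1% BSA EMEM.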
(A reporter such as luciferase makes a cellular process visible.)

The test system of data set [3] is Myostatin. The description is as above. Type of data set: cell-based. The following applies: GDF-11 IC50 versus Myostatin IC50. In short, it runs like this: as §5
Data set [4] has as its target T2, GDF-11 (Homo sapiens, UniProt O95390).
T2 construct: purchased R&D systems 1958-GD-G8/CF
T2 sequence (O95390 299-407): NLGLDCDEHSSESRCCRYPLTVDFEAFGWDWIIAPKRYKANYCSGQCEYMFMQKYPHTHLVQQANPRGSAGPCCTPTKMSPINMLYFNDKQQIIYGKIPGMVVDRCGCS
Briefly: Reporter gene assay for myostatin signaling in HepG2 cell line, Evaluation Procedure (1), GDF-11 inhibition. Type of data set: cell-based. The essentials:
as §5

In a further data set the test system is B10 mdx model mice. Kind of data set: Improvement of muscle strength and inhibition of muscle necrosis in B10 mdx mice. Type of data set: in vivo, C57BL/10-mdx/Jcl mice. The following applies: 10 mg/kg subcutaneous. The procedure:
as §1, §2, §3, §4

The nature of data set [5]: Distribution of peptide in skeletal muscle (plasma and quadriceps concentrations). Type of data set: in vivo. The following applies: mouse, sc, 10 mg/kg subcutaneously, male CD1 mice; for level at 24 h: 24 hr after administration; for level at 48 h: 48 hr after administration; for level at 72 h: 72 hr after administration. The procedure: The peptide Myostatin_99_Variant_07 (SEQ ID NO: 3), synthesized according to Example 1, was administered subcutaneously at 10 mg/kg to male 6-8-week-old CD1 mice. Plasma and quadriceps concentrations were measured at 24, 48, and 72 hours after administration. […]
Note that plasma was separated from blood by centrifugation; 25% homogenate of tissue was prepared and deproteinized with 5% formic acid-containing acetonitrile; and the drug concentrations were determined using an LC/MS/MS system (LCMS-8060, Shimadzu Corporation).

In data set [6] the target is T2, GDF-11. Kind of data set: HepG2 reporter gene assay, Evaluation Procedure (2): 2-concentrations assay, GDF-11 inhibition. The class given is cell-based. The following applies: GDF-11 10 ng/mL. The essentials:
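HepG2 cells carrying the transfected pGL3(CAGA)12-luc reporter, a pGL3 vector with luciferase placed downstream of 12 CAGA repeats, were stimulated with GDF-11 at a final 10 ng/mL together with test peptide. Blank wells received no GDF-11 and no peptide. Plates were incubated 20 to 24 hours at 37°C with 5% CO2. Luminescence from One-Glo substrate was read to calculate percent inhibition.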

In data set [7] the target is T1, Myostatin. Briefly: HepG2 reporter gene assay, Evaluation Procedure (2): 2-concentrations assay, myostatin inhibition. Type of data set: cell-based. The conditions noted are these: Myostatin 10 ng/mL, HepG2. In short, it runs like this: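 Myostatin inhibition was measured in a luciferase reporter assay using HepG2 cells transfected with a pGL3 vector containing 12 CAGA repeats upstream of luciferase. After 20 to 24 hours with 10 ng/mL myostatin, cells received One-Glo:PBS (1:1) at 100 µL/well, were shaken for 5 min, and 20 µL/well was moved to 384-well plates and read on an Envision 2104.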

The subject of data set [8] is GDF-11. Briefly: Reporter gene assay for myostatin signaling in HepG2 cell line, Evaluation Procedure (1), GDF-11 inhibition. The class given is cell-based. The following applies: GDF-11 IC50 relative to myostatin IC50, HepG2. In short, it runs like this:
as §5

Where [9] appears, read: plasma, read-out: Plasma concentration.
Setting [10] is: quadriceps muscle, quadriceps, read-out: Intramuscular concentration.

For orientation: IC50 means the point on the concentration scale where inhibition reaches its midpoint. Regarding `CC[C@H](C)[C@@H]1NC(=O)[C@H](Cc2ccccc2)N(C)C(=O)[C@H](Cc2ccc(O)cc2)NC(=O)[C@H](Cc2c[nH]c3ccccc23)NC(=O)[C@H](C)NC(=O)CN(CCCC(=O)O)C(=O)CSC[C@H](C(=O)O)NC(=O)[C@H](Cc2ccccc2)N(C)C(=O)[C@H](C)N(C)C(=O)[C@H](CC(C)C)NC(=O)[C@H](Cc2ccccc2)N(C)C(=O)[C@H](CCCNC(=N)N)NC(=O)[C@H](Cc2ccc(C(=O)O)cc2)NC(=O)[C@H](Cc2ccc(O)cc2)NC(=O)CN(C)C1=O` [Myostatin_99_Variant_07] ({CH2CO}-[Gly(N(CH2)3COOH)]AWY[NMeF]I[Sar]Y[Phe(4-COOH)]R[NMeF]L[NMeA][NMeF][dC]-OH; thioether N-15), the “time-course change in grip strength” value in [1] (vs. PBS (Fig. 3)) is “continuous increase in grip strength was observed”; in the data set with B10 mdx model mice (3 times a week, vs. PBS Vehicle group, Fig. 3), “continuous increase in grip strength”. The “time-course change in body weight” value was “cause the body weight to continuously increase” in data set [1] (vs. Vehicle (Fig. 4)) and “body weight to continuously increase” in the data set on B10 mdx model mice (3 times a week, vs. Vehicle group, Fig. 4). The 50% inhibitory concentration (IC50) on Myostatin [2] (Method A: Myostatin 10 ng/mL, read-out: IC50 (Luciferase) Myostatin HepG2) is 26.2 nM; at GDF-11 [4] (Method A: GDF-11 10 ng/mL, read-out: IC50 (Luciferase) GDF-11 HepG2), 1050 nM. The compound also registered a Selectivity in the data set with Myostatin [3] (Method A) of 40. In addition, in the data set on B10 mdx model mice (Day 35, Vehicle group 3,836 ± 754 IU/L), the “Serum creatine kinase (CK) concentrations (mean ± SEM)” value is listed as 3,247 ± 558 IU/L. Besides, the level at 24 h in data set [5] (setting [9]) was found to be 232 ng/mL; in [5] (setting [10]) it was 283 ng/mL. Moreover, the level at 48 h is 55 ng/mL in [5] (setting [9]) and 190 ng/mL in [5] (setting [10]). Besides, the results for the level at 72 h in data set [5] (setting [9]) and in data set [5] (setting [10]) were 40 ng/mL and 74 ng/mL, respectively.
One may read the inhibition as the share of the control response that was lost under treatment. For the compound `CCCCCCC[C@@H]1NC(=O)[C@H](Cc2ccccc2)N(C)C(=O)[C@H](CCCNC(=N)N)NC(=O)[C@H](Cc2ccc(C(=O)O)cc2)NC(=O)[C@H](Cc2cccc(OCC(=O)O)c2)NC(=O)CN(C)C(=O)[C@H]([C@@H](C)CC)NC(=O)[C@H](Cc2ccccc2)N(C)C(=O)[C@H](Cc2ccc(OCc3ccccc3)cc2)NC(=O)[C@H](Cc2c[nH]c3ccccc23)NC(=O)[C@H](C)NC(=O)[C@H](C)NC(=O)CSC[C@H](C(=O)N2CCN(CC(=O)O)CC2)NC(=O)[C@H](Cc2ccccc2)N(C)C(=O)[C@H](C)N(C)C1=O` [Myostatin_99_v298] ({CH2CO}-AAWY(Bn)[NMeF]I[Sar][Phe(3-OCH2COOH)][Phe(4-COOH)]R[NMeF][X1][NMeA][NMeF][dC]-{Piperazinyl(4-CH2COOH)}; thioether N-15), the inhibition at 0.03 µM at GDF-11 [6] (HepG2, peptide 30nM, read-out: GDF11 Inhibition 30nM) stood at 12%; on Myostatin [7] (peptide 30nM, read-out: Myostatin Inhibition 30nM), 100%. The inhibition at 0.1 µM at GDF-11 [6] (HepG2, peptide 100nM, read-out: GDF11 Inhibition 100nM) was determined as 55%; on Myostatin [7] (peptide 100nM, read-out: Myostatin Inhibition 100nM) it was 100%. Moreover, the half-maximal inhibitory concentration (IC50) at Myostatin [2] (Method B: Myostatin 1 ng/mL, read-out: IC50 (Luciferase) Myostatin HepG2) was found to be 0.11 nM; on GDF-11 [4] (Method B: GDF-11 1 ng/mL, read-out: IC50 (Luciferase) GDF-11 HepG2), 6.8 nM. The compound further gave a Selectivity in the data set with Myostatin [3] (Method B) of 62.
For the compound `CCCCCCC[C@@H]1NC(=O)[C@H](Cc2ccccc2)N(C)C(=O)[C@H](CCCNC(=N)N)NC(=O)[C@H](Cc2ccc(C(=O)O)cc2)NC(=O)[C@H](Cc2cccc(OCC(=O)O)c2)NC(=O)[C@H]2CCCN2C(=O)[C@H]([C@@H](C)CC)NC(=O)[C@H](Cc2ccccc2)N(C)C(=O)[C@H](Cc2ccc(O)cc2)NC(=O)[C@H](Cc2cn(-c3ccc(C(=O)O)cc3)c3cc(O)ccc23)NC(=O)[C@H](C)NC(=O)CN2CCC(=O)NC[C@@H](C(=O)N(C)[C@@H](Cc3ccccc3)C(=O)N[C@H](C)C(=O)N(C)[C@@H](C)C2=O)N(C)C1=O` [Myostatin_99_v489] (cyclo(A[Trp(6-OH,1-(4-HO2C-Ph))]Y[NMeF]I[dP][Phe(3-OCH2COOH)][Phe(4-COOH)]R[NMeF][X1][NMeDap][NMeF][dA][NMeA][N(CH2CH2CO)Gly]); lactam 12-16), the concentration for half-maximal inhibition (IC50) on Myostatin [2] (HepG2, luciferase reporter, Evaluation Procedure (1), Method D) was determined as 0.12 nM; at GDF-11 [4] (HepG2, luciferase reporter, Evaluation Procedure (1), Method D, read-out: IC50 (Luciferase) GDP-11 HepG2), 45.4 nM. In the data set with GDF-11 [8], this compound came in with a Selectivity of 365.6.
